These are literature values, as cited in US20040102473A1, “Method of preventing or treating atherosclerosis or restenosis” (priority 2002, published 2004).

The series concerns CMV. Particulars: DHPG prophylaxis, Lemstrom et al., Circulation 1994.

As for `Nc1nc(O)c2ncn(COC(CO)CO)c2n1` [Ganciclovir], the “prevention of atherosclerosis resulting from CMV infection of rats” value is reported as “prevent atherosclerosis”.
